pEC50: −log10 of the molar value. Read-outs that look alike come from different tables or passages of the source.
What was measured:
[1] = tested on: human red blood cells; assay: Hemolysis study in human blood; assay type: cell-based; conditions: 60 min, 37° C.
Description: (§1) FIG. 4A. […] Compound I-19 in human blood. Red blood cells were isolated from whole blood and resuspended in PBS. […] (final concentrations 25, 50, and 100 μM) and the mixtures were incubated at 37° C. for 60 min. After the incubation, the samples were centrifuged and the absorbance of 100 μL of supernatant was read at 410 nm. % RBC lysis is expressed relative to 100% lysis control. Values represent mean+SEM of n=3 separate experiments.
FIG. 4B. Hemolytic Potential of Compound I-4 in human blood. Red blood cells were isolated from whole blood and resuspended in PBS. 190 μL of diluted RBC suspension and 10 μL of Compound I-4 solutions were mixed at 0 min. (final concentrations 25, 50, and 100 μM) and the mixtures were incubated at 37° C. for 60 min. After the incubation, the samples were centrifuged and the absorbance of 100 μL of supernatant was read at 410 nm. % RBC lysis is expressed relative to 100% lysis control. Values represent mean+SEM of n=3 separate experiments.
(§2) FIG. 4C. Hemolytic Potential of Amphotericin B in human blood (positive assay control). Red blood cells were isolated from whole blood and resuspended in PBS. 190 μL of diluted RBC suspension and 10 μl of amphotericin B solutions were mixed at 0 min. (final concentrations 1, 10, 30, and 100 μM) and the mixtures were incubated at 37° C. for 60 min. After the incubation, the samples were centrifuged and the absorbance of 100 μL of supernatant was read at 410 nm. % RBC lysis is expressed relative to 100% lysis control. Values represent mean+SEM of n=3 separate experiments.
(§3) To a clear 96-well V-bottom polystyrene plate, the test articles (10 μL) and the diluted RBCs (190 μL) from human or rat blood were mixed for final concentrations of 25, 50, and 100 μM. The reaction mixture was incubated at 37° C. for 60 min. Following the exposure period, the plates were centrifuged. After centrifugation, 70 μL of supernatant (without disturbing the pellet) was transferred to a clean and clear polystyrene flat bottomed 96-well plate and the absorbance of the sample at a single wavelength was measured using a BioTech Synergy H1 Plate Reader at a wavelength of 410 nm. The positive control for this assay was amphotericin B test at concentrations of 1, 10, 30, and 100 μM.

[2] = tested on: rat red blood cells; assay: Hemolysis study in rat blood; assay type: cell-based; conditions: 60 min, 37° C.
Description: as §1, with “6A.” for “4A.”, “rat” for “human”
as §1, with “6B.” for “4A.”, “rat” for “human”, “μl” for “μL”
as §2, with “6C.” for “4C.”, “rat” for “human”, “μL” for “μl”
as §3

[3] = target: T1, OAT3 (Homo sapiens, UniProt Q8TCC7); assay: Uptake transporter inhibition assay, OAT3 (estrone-3-sulfate); conditions: for inhibition at 500 μM: human
T1 sequence (Q8TCC7 1-542): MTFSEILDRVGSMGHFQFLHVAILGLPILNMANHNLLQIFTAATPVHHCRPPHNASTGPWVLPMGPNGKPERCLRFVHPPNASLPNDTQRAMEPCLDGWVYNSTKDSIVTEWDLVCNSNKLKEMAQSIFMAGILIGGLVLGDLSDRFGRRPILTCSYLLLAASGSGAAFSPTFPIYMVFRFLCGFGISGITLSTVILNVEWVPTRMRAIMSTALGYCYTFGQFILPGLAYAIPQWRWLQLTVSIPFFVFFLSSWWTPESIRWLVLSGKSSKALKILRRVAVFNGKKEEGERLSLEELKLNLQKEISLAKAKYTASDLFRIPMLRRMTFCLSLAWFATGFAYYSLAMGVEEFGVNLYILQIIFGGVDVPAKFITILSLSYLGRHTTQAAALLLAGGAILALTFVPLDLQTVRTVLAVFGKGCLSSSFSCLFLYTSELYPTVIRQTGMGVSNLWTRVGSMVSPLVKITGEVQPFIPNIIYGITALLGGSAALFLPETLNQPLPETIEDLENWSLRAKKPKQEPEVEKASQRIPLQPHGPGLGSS
Description: Uptake experiments were performed using HEK293 cells stably expressing the respective uptake transporters. The assays were conducted according to the actual SOLVO uptake transporter assay protocols (PR-ASY-UPT-General Protocol for Uptake Transporter Inhibition Assays).
Cells were cultured at 37° C. in a humidified atmosphere containing 5% CO2 and were plated onto standard 96-well tissue culture plates.
Before the experiment, the medium was removed, and the cells were washed twice with 100 μL of pre-warmed (37° C.) assay buffer listed in Table 15. The cells were pre-incubated at 37° C. for 30 minutes in assay buffer containing the test article at appropriate concentrations (Table 16), appropriate solvents for solvent controls and the reference inhibitor for reference inhibitor wells. After the pre-incubation step solutions were removed. Uptake experiments were performed at 37° C. in 50 μL of assay buffer containing the probe substrate and the test article or solvent and controls.
After the experiment, cells were washed twice with 100 μL of appropriate cold buffer and lysed with 150 μL scintillation cocktail. Radiolabeled probe substrate transport was determined by liquid scintillation counting.
Uptake of the probe substrate in control cells provided background activity values for all data points.

[4] = tested on: orexin/tTA; Tet-O diphtheria toxin A mice (DTA mice); assay type: in vivo, mouse; conditions: 6 h after dosing at ZT12; for cataplexy (C) time: Compound I-19 0.3, 1, 3 mg/kg i.p., Compound I-4 0.3, 1, 3 mg/kg p.o., Des 5 mg/kg p.o.
[5] = tested on: Wistar rats; assay type: in vivo, Wistar rat
Description: Animals were trained in eight automated 5C-SRTT operant chambers (Med Associates, St. Albans, VT, USA), controlled by MedPC software (Med Associates). Briefly, each operant chamber was equipped with 5 apertures containing a photocell beam to detect nose pokes and a lamp (2.8 W) that could be illuminated randomly at varying durations. Food pellets (45 mg chow pellet, BioServ, Frenchtown, NJ, USA) were delivered automatically to a magazine, located on the opposite wall to the nose pokes, that was also equipped with a light that turned on to indicate that a pellet had been dispensed. The house-light remained on for the entire session unless an error or omission occurred. Training sessions began with the delivery of a food reward and retrieval triggered the first trial. […] Training began with the stimulus duration set at 10 sec, a limited hold period of 5 sec and an ITI of 5 sec. […] Sessions ended when 40 minutes had lapsed or 100 trials had been completed.
Upon meeting the performance criteria, animals were assessed in the vSD version of the task where the following stimulus durations were presented in a pseudorandom manner: 0.3, 0.6 and 0.9 sec. Later, subjects were assessed in the vITI version where 2.5, 5.0 and 10.0 sec ITIs were employed in a pseudorandom manner. Performance parameters measured were: % hit ((# correct/(# correct+# incorrect including omissions))×100); % correct ((# correct/(# correct+# incorrect excluding omissions))×100); premature responses (# of nose-pokes into any aperture after trial initiation but before onset of the stimulus light); timeout responses (# of nose pokes into any aperture during a timeout period), perseverative responses (# of nose pokes occurring after the correct response had been made but before reward collection); # of food magazine head entries, omissions and total trials completed. The latency to correct response (time taken from the onset of the nose poke light stimulus to making the correct nose poke response), latency to incorrect response (time taken from onset of nose poke light stimulus to making the incorrect nose poke response), and latency to reward (i.e., the magazine latency, time taken from making a correct nose poke response to retrieving the reward from the magazine) was also recorded.
Drug doses and vehicle were administered in a pseudorandom fashion. Drug or vehicle sessions were performed 1-2 times per week with maintenance training (behavioral testing without drug or vehicle injections) interspersed.
All data were collated and entered into Microsoft Excel spreadsheets. The data were subsequently imported into StatView 5.0 for statistical analyses. One and two factor analysis of variance (ANOVA) tests were used with repeated measures when indicated, followed by Fisher LSD or Student Newman Keuls as post-hoc tests. All results were expressed as the mean (±S.E.M.). Differences between means from experimental groups were considered significant at the p<0.05 level. The statistical F values and degrees of freedom associated with the two factor ANOVA analyses are provided in the text of this report. Please refer to the statistical reports in the appendices for the values associated with one factor ANOVAs for the overall means and overall total values.

[6] = test articles 25, 50, 100 μM, amphotericin B 1, 10, 30, 100 μM

## C[C@@H]1[C@H](O)[C@@H](C)/C=C/C=C/C=C/C=C/C=C/C=C/C=C/[C@H](O[C@@H]2O[C@H](C)[C@@H](O)[C@H](N)[C@@H]2O)C[C@@H]2O[C@](O)(C[C@@H](O)C[C@@H](O)[C@H](O)CC[C@@H](O)C[C@@H](O)CC(=O)O[C@H]1C)C[C@H](O)[C@H]2C(=O)O [amphotericin B, reference compound]
[1]; read-out: EC50 (% RBC lysis)
  pEC50: 5.15
[1]; [6]
  % RBC lysis (hemolytic potential): dose-dependent increase in % RBC lysis
[2]; read-out: EC50 (% RBC lysis)
  pEC50: 5.33
[2]; [6]
  % RBC lysis (hemolytic potential): dose-dependent increase in % RBC lysis

## CCCN(CCC)S(=O)(=O)c1ccc(C(=O)O)cc1 [Probenecid]
[3]; 500.00 μM nominal, E3S, Table 130
  Transporter specific accumulation: 291.67 ± 17.04 cpm
[3]; 500.00 μM, reference inhibitor
  Relative transporter specific accumulation: 1.68 ± 0.31 % of control
[3]; Relative Inhibition, 500.00 μM nominal, E3S, Table 130
  inhibition at 500 μM: 98%
[3]; Relative inhibition, 500.00 μM, reference inhibitor
  inhibition at 500 μM: 97%

## CNCCCN1c2ccccc2CCc2ccccc21 [Desipramine, reference compound]
[4]
  latency to REM (effect): increased the latency to REM onset
  cataplexy (C) time: decreased significantly for the first 2 h post administration but was not significant overall
[4]; listed as Des
  cataplexy (C) time: decreased for the first 2 h post administration but was not significant overall
[4]; same doses
  REM time: overall reduction in REM sleep did not reach significance

## CN1CCCC1c1cccnc1 (stereo not shown) [nicotine, Nicotine, reference compound]
[5]; nicotine 0.05-0.2 mg/kg sc, Compound I-4 0.1-3.0 mg/kg ip, Compound I-19 0.03-1.0 mg/kg ip
  % hit rate: increase in the % hit rate
[5]; same doses
  % correct: no statistically significant effects
  Magazine Head Entries: increase in the number of premature responses, timeout responses, magazine head entries
  Omissions: decrease in omissions
  number of trials completed: no effect on the total number of trials completed
  perseverative responses: no statistically significant effects on perseverative responses or reward latencies
  premature responses: the higher 2 doses of nicotine were associated with an increase
  response latencies (correct, incorrect): modest decrease in the response latencies associated with correct responses
  reward latencies: no statistically significant effects on perseverative responses or reward latencies
  timeout responses: increase in the number of premature responses, timeout responses, magazine head entries
